Laboratory results as given in PMC6952399, “Structures of lipoprotein signal peptidase II from Staphylococcus aureus complexed with antibiotics globomycin and myxovirescin” (Nature Communications, 2020).
“And” between values parts separate entries of the source, which are not always exact repeats. Identical values can stand only once.

Molecular target: T1, LspPae (lipoprotein signal peptidase II from Pseudomonas aeruginosa) (Pseudomonas aeruginosa, UniProt Q9HVM5)
T1 construct: made in house
T1 sequence (Q9HVM5 1-169): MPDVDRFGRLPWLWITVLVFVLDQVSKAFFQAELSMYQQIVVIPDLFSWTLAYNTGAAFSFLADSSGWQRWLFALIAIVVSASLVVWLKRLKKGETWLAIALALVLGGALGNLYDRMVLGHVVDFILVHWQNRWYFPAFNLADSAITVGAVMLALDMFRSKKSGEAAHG
Assay: FRET lipopeptide peptidase assay, LspPae
Assay type: biochemical
Conditions: for Fluorescence (RFU): FRET substrate + LspA + Myxovirescin; for Rate (RFU/min) / Normalised rate (Vi/V0): replicates 1 and 2; for Ki: estimated Ki’ (apparent inhibition constant)
Procedure: FRET activity assays. A FRET based assay was developed using a labelled lipopeptide substrate (Supplementary Methods, Supplementary Fig. 3b) to directly monitor the protease activity of LspA. The optimised LspMrs assay buffer included 100 mM Tris/HCl pH 7.8, 150 mM NaCl and 0.09%(w/v) DDM. The corresponding optimized buffer for LspPae included 100 mM MES/NaOH pH 5.6, 150 mM NaCl and 0.05%(w/v) LMNG. All assays were performed at 37 °C.
Reaction mixtures were prepared by vortexing (Clifton, cyclone CM-1) for 2 s and incubated at 37 °C, 800 rpm for 10 to 30 min. […] For dose-response assays, the final DMSO concentration in all reactions was 10%(v/v). Reaction mixtures were pipetted into wells of a 96- (Thermo Scientific) or a 384-well plate (4titude®) and incubated for 10 min at 37 °C in a SpectraMax M3 or a SpectraMax M5e plate reader (Molecular devices) prior to starting the assay. Assays were initiated by adding enzyme to a final concentration in the range 10–300 nM. Total reaction mixture volume was 50 μL. Reactions were monitored by fluorescence (Ex/Em, 320 nm/420 nm) for 30 to 60 min at 37 °C. Initial rates were calculated from the fluorescence intensity versus time progress curves (Supplementary Figs. 5 and 6). Occasionally, lag periods in the progress curves were observed (Supplementary Discussion). In such cases, initial rates were calculated after the lag period had passed (typically 1–5 min) and a steady rate had been established. Dose-response plots to determine IC50 values were generated using Prism® 5 software from GraphPad.
It was possible to convert units of fluorescence change into moles of substrate consumed or products formed because pure products of LspA action on Abz-LALAGC*SS-nY-NH2 had been synthesized and were available. These were used to create a standard curve of fluorescence versus moles of the two products in equimolar amounts and to calculate specific activity values. […]
One consequence of LspMrs having a relatively low specific activity is that, in order to get a reliable signal in activity assays, it was necessary to raise enzyme concentration. For kinetic measurements generally, it is desirable to use an enzyme concentration that is much lower than that of the substrate. In this situation, the usual assumption that added and free substrate concentrations are equal is valid. At high enzyme concentrations [E] therefore, and especially in the case of tight ligand binding where the inhibition constant, Ki, is small, a measured IC50 is limited to [E]/2 4–6. In such circumstances, a meaningful IC50 or Ki can only be obtained with considerable effort. With a few exceptions in the current study, this situation prevailed with both LspA orthologs where IC50 values came close to [E]/2 (Table 1 and Supplementary Table 3, Supplementary Fig. 6). […]
Inhibition of LspA from E. coli by globomycin has been described as non-competitive7. The evidence provided in support o f this conclusion included an insensitivity of IC 50 to substrate concentration and the fact that the Vmax but not the K m changed with globomycin concentration. It was of interest to determine if a similar mode of inhibition applied to LspPae and LspMrs. From published work7–9 and from FRET-based kinetics measurements reported here, we know that globomycin binds with high affinity (Supplementary Fig. 6). Tight binding means that a more in-depth analysis must be carried out in order to identify inhibition type. For such analysis, it is important to know active enzyme concentration accurately. Fortunately, it was possible to use the property of tight inhibitor binding to measure the concentration of active enzyme ( Supplementary Fig. 18a). In the case of LspPae, the estimated value and the concentration determined spectroscopically agreed remarkably well. Parenthetically we note that knowing active LspPae concentration accurately enabled a characterization of the myxovirescin sample used in this study. Myxovirescin also binds tightly to LspA (Supplementary Fig. 6). […]

[1] = Suppl. Fig. 18b, [Myxovirescin] 0.02 μM
[2] = Suppl. Fig. 18b, [Myxovirescin] 0.05 μM
[3] = Suppl. Fig. 18b, [Myxovirescin] 0.08 μM
[4] = Suppl. Fig. 18b, [Myxovirescin] 0.1 μM
[5] = Suppl. Fig. 18b, [Myxovirescin] 0.12 μM
[6] = Suppl. Fig. 18b, [Myxovirescin] 0.15 μM
[7] = Suppl. Fig. 18b, [Myxovirescin] 0.25 μM
[8] = Suppl. Fig. 18c, [Myxovirescin] nominal conc. 0.02 μM, corrected conc. 0.01454 μM
[9] = Suppl. Fig. 18c, [Myxovirescin] nominal conc. 0.05 μM, corrected conc. 0.03635 μM
[10] = Suppl. Fig. 18c, [Myxovirescin] nominal conc. 0.08 μM, corrected conc. 0.05816 μM
[11] = Suppl. Fig. 18c, [Myxovirescin] nominal conc. 0.1 μM, corrected conc. 0.0727 μM
[12] = Suppl. Fig. 18c, [Myxovirescin] nominal conc. 0.12 μM, corrected conc. 0.08724 μM
[13] = Suppl. Fig. 18c, [Myxovirescin] nominal conc. 0.15 μM, corrected conc. 0.10905 μM
[14] = Suppl. Fig. 18c, [Myxovirescin] nominal conc. 0.25 μM, corrected conc. 0.18175 μM

CCCC1OC(=O)C(C)CC(C)CCCCC(=O)CCCC(CC)C=CC=C(COC)CCC(O)C(O)CC(O)CNC1=O (centres unmarked) [myxovirescin, myxovirescin A1]
inhibitor on-rates (5-fold molar excess of antibiotic added 20 to 30 min after start of reaction): fast
Fluorescence (RFU) (time 27 min): 524.203 RFU
Fluorescence (RFU) (time 27.5 min): 527.644 RFU
Fluorescence (RFU) (time 28 min): 525.326 RFU
Fluorescence (RFU) (time 28.5 min): 532.036 RFU
Fluorescence (RFU) (time 29 min): 530.446 RFU
Fluorescence (RFU) (time 29.5 min): 520.770 RFU
Fluorescence (RFU) (time 30 min): 525.266 RFU
Fluorescence (RFU) (time 30.5 min): 523.492 RFU
Fluorescence (RFU) (time 31 min): 522.555 RFU
Fluorescence (RFU) (time 31.5 min): 520.169 RFU
Fluorescence (RFU) (time 32 min): 526.741 RFU
Fluorescence (RFU) (time 32.5 min): 523.010 RFU
Fluorescence (RFU) (time 33 min): 519.722 RFU
Fluorescence (RFU) (time 33.5 min): 528.885 RFU
Fluorescence (RFU) (time 34 min): 517.843 RFU
Fluorescence (RFU) (time 34.5 min): 518.721 RFU
Fluorescence (RFU) (time 35 min): 516.893 RFU
Fluorescence (RFU) (time 35.5 min): 521.148 RFU
Fluorescence (RFU) (time 36 min): 519.865 RFU
Fluorescence (RFU) (time 36.5 min): 522.746 RFU
Fluorescence (RFU) (time 37 min): 519.603 RFU
Fluorescence (RFU) (time 37.5 min): 522.440 RFU
Fluorescence (RFU) (time 38 min): 518.255 RFU
Fluorescence (RFU) (time 38.5 min): 516.274 RFU
Fluorescence (RFU) (time 39 min): 516.879 RFU
Fluorescence (RFU) (time 39.5 min): 521.400 RFU
Fluorescence (RFU) (time 40 min): 509.974 RFU
Fluorescence (RFU) (time 40.5 min): 516.718 RFU
Fluorescence (RFU) (time 41 min): 513.520 RFU
Fluorescence (RFU) (time 41.5 min): 514.018 RFU
Fluorescence (RFU) (time 42 min): 520.839 RFU
Fluorescence (RFU) (time 42.5 min): 520.491 RFU
Fluorescence (RFU) (time 43 min): 514.424 RFU
Fluorescence (RFU) (time 43.5 min): 516.271 RFU
Fluorescence (RFU) (time 44 min): 509.335 RFU
Fluorescence (RFU) (time 44.5 min): 511.506 RFU
Fluorescence (RFU) (time 45 min): 512.926 RFU
Fluorescence (RFU) (time 45.5 min): 515.088 RFU
Fluorescence (RFU) (time 46 min): 509.497 RFU
Fluorescence (RFU) (time 46.5 min): 509.153 RFU
Fluorescence (RFU) (time 47 min): 505.807 RFU
Fluorescence (RFU) (time 47.5 min): 508.613 RFU
Fluorescence (RFU) (time 48 min): 508.252 RFU
Fluorescence (RFU) (time 48.5 min): 514.611 RFU
Fluorescence (RFU) (time 49 min): 508.852 RFU
Fluorescence (RFU) (time 49.5 min): 511.333 RFU
Fluorescence (RFU) (time 50 min): 507.505 RFU
Fluorescence (RFU) (time 50.5 min): 508.404 RFU
Fluorescence (RFU) (time 51 min): 511.832 RFU
IC50 (IC50, 20 nM LspPae, substrate 5 µM): 9.76 nM and 12.3 nM
IC50 (IC50, 20 nM LspPae, substrate 7.5 µM): 10.4 nM and 12.9 nM
IC50 (IC50, 20 nM LspPae, substrate 10 µM): 11.1 nM and 14.4 nM
IC50 (IC50, 20 nM LspPae, substrate 15 µM): 8.51 nM and 11.1 nM
IC50 (IC50, 20 nM LspPae, substrate 20 µM): 9.14 nM and 13.9 nM
IC50 (IC50, 20 nM LspPae, substrate 30 µM): 11.4 nM and 13.8 nM
IC50 (IC50, FRET, 0.1 µM enzyme, 30 µM substrate, initial rates): 53 nM
IC50 (IC50, LspPae concentration 10 nM): 4.1 nM and 5 nM
IC50 (IC50, LspPae concentration 20 nM): 13.5 nM and 21.2 nM
IC50 (IC50, LspPae concentration 40 nM): 20.3 nM and 26.1 nM
IC50 (IC50, LspPae concentration 60 nM): 24.5 nM and 34.1 nM
IC50 (IC50, LspPae concentration 80 nM): 41.7 nM and 50.6 nM
IC50 (IC50, LspPae concentration 100 nM): 49.2 nM and 55.8 nM
Rate (RFU/min) (LspPae block, log [myxo] (uM) -0.82): 0.2 RFU/min
Rate (RFU/min) (LspPae block, log [myxo] (uM) -0.92): 0.1 RFU/min and 0.2 RFU/min
Rate (RFU/min) (LspPae block, log [myxo] (uM) -1.00): 0.1 RFU/min and 0.2 RFU/min
Rate (RFU/min) (LspPae block, log [myxo] (uM) -1.10): 1.3 RFU/min and 1.5 RFU/min
Rate (RFU/min) (LspPae block, log [myxo] (uM) -1.30): 5.8 RFU/min and 6.2 RFU/min
Rate (RFU/min) (LspPae block, log [myxo] (uM) -1.70): 10.2 RFU/min and 10.1 RFU/min
Rate (RFU/min) (LspPae block, log [myxo] (uM) -2.00): 11.4 RFU/min and 11.5 RFU/min
Normalised rate (Vi/V0) [1]: 0.8634 and 0.8943
Rate (RFU/min) [1]: 45.52 RFU/min and 45.67 RFU/min
Normalised rate (Vi/V0) [2]: 0.6591 and 0.6875
Rate (RFU/min) [2]: 34.75 RFU/min and 35.11 RFU/min
Normalised rate (Vi/V0) [3]: 0.4365 and 0.4511
Rate (RFU/min) [3]: 23.01 RFU/min and 23.04 RFU/min
Normalised rate (Vi/V0) [4]: 0.2771 and 0.2863
Rate (RFU/min) [4]: 14.61 RFU/min and 14.62 RFU/min
Normalised rate (Vi/V0) [5]: 0.09825 and 0.09947
Rate (RFU/min) [5]: 5.18 RFU/min and 5.08 RFU/min
Normalised rate (Vi/V0) [6]: 0.01309 and 0.02976
Rate (RFU/min) [6]: 0.69 RFU/min
Normalised rate (Vi/V0) [7]: 0.01574 and 0.02741
Rate (RFU/min) [7]: 0.83 RFU/min and 1.4 RFU/min
Normalised rate (Vi/V0) [8]: 0.8634 and 0.8943
Rate (RFU/min) [8]: 45.52 RFU/min and 45.67 RFU/min
Normalised rate (Vi/V0) [9]: 0.6591 and 0.6875
Rate (RFU/min) [9]: 34.75 RFU/min and 35.11 RFU/min
Normalised rate (Vi/V0) [10]: 0.4365 and 0.4511
Rate (RFU/min) [10]: 23.01 RFU/min and 23.04 RFU/min
Normalised rate (Vi/V0) [11]: 0.2771 and 0.2863
Rate (RFU/min) [11]: 14.61 RFU/min and 14.62 RFU/min
Normalised rate (Vi/V0) [12]: 0.09825 and 0.09947
Rate (RFU/min) [12]: 5.18 RFU/min and 5.08 RFU/min
Normalised rate (Vi/V0) [13]: 0.01309 and 0.02976
Rate (RFU/min) [13]: 0.69 RFU/min
Normalised rate (Vi/V0) [14]: 0.01574 and 0.02741
Rate (RFU/min) [14]: 0.83 RFU/min and 1.4 RFU/min
IC50 (average IC50, 20 nM LspPae, substrate 2.5 or 5 to 30 µM): ~10 nM
Ki (Morrison analysis, 30 µM substrate, 0.1 µM LspPae): 0.0476 ± 0.128 nM
Ki (from dependence of IC50 on enzyme concentration, IC50 = Ki’ + [E]/2): 2.69 ± 2.8 nM
